How the values were obtained:
Assay in all cases: cells
MN-60 = assay type: functional, cell-based; conditions: Homo sapiens;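 also: growth inhibition of the MN-60 cell line, determined with a cell viability assay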
Description: SANGER: Inhibition of human MN-60 cell growth in a cell viability assay.

BB65-RCC = assay type: functional, cell-based, Homo sapiens; conditions: Homo sapiens, BB65-RCC;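 also: growth inhibition of the cell line, measured with a cell viability assay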
Description: SANGER: Inhibition of human BB65-RCC cell growth in a cell viability assay.

A498 = assay type: functional, cell-based, Homo sapiens; conditions: Homo sapiens, A498;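 also: growth inhibition of human A498 cells, read out with a cell viability assay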
Description: SANGER: Inhibition of human A498 cell growth in a cell viability assay.

SK-N-DZ = assay type: functional, cell-based, Homo sapiens; conditions: Homo sapiens, SK-N-DZ;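 also: growth inhibition of the cancer cell line, read out through a viability assay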
Description: SANGER: Inhibition of human SK-N-DZ cell growth in a cell viability assay.

MFH-ino = assay type: functional, cell-based; conditions: Homo sapiens;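 also: growth inhibition of human MFH-ino cells, read out by a cell viability assay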
Description: SANGER: Inhibition of human MFH-ino cell growth in a cell viability assay.

NCI-H526 = assay type: functional, cell-based; conditions: Homo sapiens;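 also: growth inhibition of the human NCI-H526 cell line, measured by a cell viability assay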
Description: SANGER: Inhibition of human NCI-H526 cell growth in a cell viability assay.

U-266 = assay type: functional, cell-based; conditions: Homo sapiens
Description: SANGER: Inhibition of human U-266 cell growth in a cell viability assay.

Lu-65 = assay type: functional, cell-based; conditions: Homo sapiens;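 also: growth inhibition of Lu-65 cancer cells, read out by a cell viability assay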
Description: SANGER: Inhibition of human LU-65 cell growth in a cell viability assay.

LU-134-A = assay type: functional, cell-based; conditions: Homo sapiens
Description: SANGER: Inhibition of human LU-134-A cell growth in a cell viability assay.

IST-MEL1 = assay type: functional, cell-based, Homo sapiens; conditions: Homo sapiens, IST-MEL1;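 also: growth inhibition of the cell line, read out with a cell viability assay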
Description: SANGER: Inhibition of human IST-MEL1 cell growth in a cell viability assay.

L-428 = assay type: functional, cell-based; conditions: Homo sapiens
Description: SANGER: Inhibition of human L-428 cell growth in a cell viability assay.

BB49-HNC = assay type: functional, cell-based, Homo sapiens; conditions: Homo sapiens, BB49-HNC;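 also: cell viability assay read-out, reported as inhibition of BB49-HNC cell growth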
Description: SANGER: Inhibition of human BB49-HNC cell growth in a cell viability assay.

KINGS-1 = assay type: functional, cell-based, Homo sapiens; conditions: Homo sapiens, KINGS-1;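 also: cell viability assay measuring suppression of KINGS-1 cell growth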
Description: SANGER: Inhibition of human KINGS-1 cell growth in a cell viability assay.

LS-1034 = assay type: functional, cell-based, Homo sapiens; conditions: Homo sapiens, LS-1034
Description: SANGER: Inhibition of human LS-1034 cell growth in a cell viability assay.

DB = assay type: functional, cell-based; conditions: Homo sapiens
Description: SANGER: Inhibition of human DB cell growth in a cell viability assay.

GCIY = assay type: functional, cell-based, Homo sapiens; conditions: Homo sapiens, GCIY;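 also: growth inhibition of the human GCIY cell line, read out by a cell viability assay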
Description: SANGER: Inhibition of human GCIY cell growth in a cell viability assay.

NB10 = assay type: functional, cell-based, Homo sapiens; conditions: Homo sapiens, NB10;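 also: growth inhibition of NB10 cells, read out by a cell viability assay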
Description: SANGER: Inhibition of human NB10 cell growth in a cell viability assay.

NCI-H446 = assay type: functional, cell-based; conditions: Homo sapiens;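 also: growth inhibition of NCI-H446 cells determined by a cell viability assay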
Description: SANGER: Inhibition of human NCI-H446 cell growth in a cell viability assay.

BT-474 = assay type: functional, cell-based, Homo sapiens; conditions: Homo sapiens, BT-474
Description: SANGER: Inhibition of human BT-474 cell growth in a cell viability assay.

NCI-H1838 = assay type: functional, cell-based, Homo sapiens; conditions: Homo sapiens, NCI-H1838;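 also: growth inhibition of NCI-H1838 cells, determined with a cell viability readout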
Description: SANGER: Inhibition of human NCI-H1838 cell growth in a cell viability assay.

LB2518-MEL = assay type: functional, cell-based, Homo sapiens; conditions: Homo sapiens, LB2518-MEL;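 also: growth inhibition of human LB2518-MEL cells, measured with a cell viability assay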
Description: SANGER: Inhibition of human LB2518-MEL cell growth in a cell viability assay.

SCC-15 = assay type: functional, cell-based, Homo sapiens; conditions: Homo sapiens, SCC-15;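 also: growth inhibition of SCC-15 cells, read out with a cell viability assay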
Description: SANGER: Inhibition of human SCC-15 cell growth in a cell viability assay.

| Structure (SMILES) | IC50 (MN-60) [µM] | IC50 (BB65-RCC) [µM] | IC50 (SK-N-DZ) [µM] | IC50 (MFH-ino) [µM] | IC50 (NCI-H526) [µM] | IC50 (U-266) [µM] | IC50 (Lu-65) [µM] | IC50 (LU-134-A) [µM] | IC50 (IST-MEL1) [µM] | IC50 (L-428) [µM] | IC50 (BB49-HNC) [µM] | IC50 (KINGS-1) [µM] | IC50 (LS-1034) [µM] | IC50 (DB) [µM] | IC50 (GCIY) [µM] | IC50 (NB10) [µM] | IC50 (NCI-H446) [µM] | IC50 (BT-474) [µM] | IC50 (NCI-H1838) [µM] | IC50 (LB2518-MEL) [µM] | also measured |
| --- | --- | --- | --- | --- | --- | --- | --- | --- | --- | --- | --- | --- | --- | --- | --- | --- | --- | --- | --- | --- | --- |
| CCc1nc(N)nc(N)c1-c1ccc(Cl)cc1 [PYRIMETHAMINE] | > 20 | > 20 | > 20 | > 20 | 7.92 | 5.13 | 11 | > 20 | 4.33 | > 20 | > 20 | > 20 | 18.3 | > 20 | > 20 | > 20 | > 20 | > 20 | > 20 | > 20 | IC50 (A498): > 20 µM |
| O=C(/C=C/c1ccccc1)NC(NC(=S)Nc1cccc2cccnc12)C(Cl)(Cl)Cl (configuration not stated) [SALUBRINAL] | > 16 | > 16 | > 16 | > 16 | > 16 | > 16 | > 16 | > 16 | > 16 | > 16 | > 16 | > 16 | > 16 | > 16 | > 16 | > 16 | > 16 | > 16 | > 16 | 7.97 | IC50 (A498): > 16 µM; IC50 (SCC-15): > 16 µM |
| Cc1cc(Nc2cc(N3CCN(C)CC3)nc(Sc3ccc(NC(=O)C4CC4)cc3)n2)n[nH]1 [TOZASERTIB] | > 2 | 1.18 | 0.962 | 0.0099 | > 2 | > 2 | > 2 | > 2 | > 2 | > 2 | > 2 | > 2 | > 2 | > 2 | > 2 | > 2 | > 2 | > 2 | > 2 | > 2 | IC50 (A498): > 2 µM; IC50 (SCC-15): > 2 µM |
| CN1CCN(CCOc2cc(OC3CCOCC3)c3c(Nc4c(Cl)ccc5c4OCO5)ncnc3c2)CC1 [SARACATINIB] | > 2 | > 2 | 1.85 | 1.78 | > 2 | > 2 | > 2 | > 2 | > 2 | > 2 | > 2 | > 2 | > 2 | > 2 | > 2 | > 2 | > 2 | > 2 | > 2 | > 2 | IC50 (A498): > 2 µM; IC50 (SCC-15): > 2 µM |
| C=C1C(=O)O[C@@H]2C3O[C@]3(C)CC/C=C(\C)CC[C@@H]12 (some centres not stated) | > 5 | > 5 | 4.65 | > 5 | > 5 | > 5 | > 5 | > 5 | > 5 | > 5 | > 5 | > 5 | > 5 | > 5 | > 5 | > 5 | > 5 | > 5 | > 5 | > 5 | IC50 (A498): > 5 µM |
| CO[C@H]1C[C@@H]2CC[C@@H](C)[C@@](O)(O2)C(=O)C(=O)N2CCCC[C@H]2C(=O)O[C@H]([C@H](C)C[C@@H]2CC[C@@H](O)[C@H](OC)C2)CC(=O)[C@H](C)/C=C(\C)[C@@H](O)[C@@H](OC)C(=O)[C@H](C)C[C@H](C)/C=C/C=C/C=C/1C [SIROLIMUS] | > 0.1 | > 0.1 | > 0.1 | > 0.1 | 0.0936 | > 0.1 | > 0.1 | > 0.1 | > 0.1 | > 0.1 | > 0.1 | 0.0515 | > 0.1 | > 0.1 | 0.0535 | > 0.1 | > 0.1 | > 0.1 | > 0.1 | > 0.1 | IC50 (A498): > 0.1 µM; IC50 (SCC-15): > 0.1 µM |
| CCC(=O)N1CCN(c2ccc(-n3c(=O)ccc4cnc5ccc(-c6cnc7ccccc7c6)cc5c43)cc2C(F)(F)F)CC1 [TORIN1] | 0.299 | 0.0369 | 0.147 | 0.0281 | 0.91 | 0.132 | > 1.2 | 0.553 | 0.0177 | 0.103 | 0.136 | 0.058 | 0.364 | 0.501 | 0.0101 | > 1.2 | 0.169 | 0.293 | > 1.2 | 0.087 | IC50 (A498): > 1.2 µM; IC50 (SCC-15): > 1.2 µM |
| CNC(=O)c1cc(Oc2ccc(NC(=O)Nc3ccc(Cl)c(C(F)(F)F)c3)cc2)ccn1 [SORAFENIB] | > 4 | 0.471 | > 4 | 2.92 | > 4 | > 4 | > 4 | > 4 | > 4 | > 4 | > 4 | > 4 | > 4 | > 4 | > 4 | > 4 | > 4 | > 4 | > 4 | 1.21 | IC50 (A498): > 4 µM; IC50 (SCC-15): > 4 µM |
| CS(=O)(=O)CCNCc1ccc(-c2ccc3ncnc(Nc4ccc(OCc5cccc(F)c5)c(Cl)c4)c3c2)o1 [LAPATINIB] | > 2 | > 2 | > 2 | > 2 | > 2 | > 2 | > 2 | > 2 | > 2 | > 2 | > 2 | > 2 | > 2 | > 2 | > 2 | > 2 | > 2 | 0.213 | > 2 | > 2 | IC50 (SCC-15): > 2 µM |
| CC1=C2C[C@H]3[C@@H](CC=C4C[C@@H](O)CC[C@@]43C)[C@@H]2CC[C@]12O[C@@H]1C[C@H](C)CN[C@H]1[C@H]2C [CYCLOPAMINE] | > 16 | > 16 | > 16 | > 16 | > 16 | > 16 | > 16 | > 16 | > 16 | > 16 | > 16 | > 16 | > 16 | > 16 | > 16 | > 16 | > 16 | > 16 | > 16 | > 16 | IC50 (A498): > 16 µM; IC50 (SCC-15): > 16 µM |
